Reference: PMC5218480 (PLoS ONE, 2017)

System: MV-4-11 cells
Assay: Gene expression microarray analysis (Affymetrix PrimeView) and GSEA
Type: cell-based, human
Parameters: RFU PODN (11730768_x_at) / Fold change /veh PODN (11730768_x_at) / RFU LINC00158 (11744669_a_at) / Fold change /veh LINC00158 (11744669_a_at) / RFU DUSP10 (11751237_a_at) / Fold change /veh DUSP10 (11751237_a_at) / RFU ID3 (11757404_x_at) / Fold change /veh ID3 (11757404_x_at) / RFU PLEKHG5 (11737974_s_at) / Fold change /veh PLEKHG5 (11737974_s_at) / RFU LRRC4B (11730491_at) / Fold change /veh LRRC4B (11730491_at) / RFU GIMAP4 (11747438_a_at) / Fold change /veh GIMAP4 (11747438_a_at) / RFU KRT8 (11758183_x_at) / Fold change /veh KRT8 (11758183_x_at) / RFU CNN1 (11734310_a_at) / Fold change /veh CNN1 (11734310_a_at) / RFU VPS37D (11726825_at) / Fold change /veh VPS37D (11726825_at) / RFU C10orf10 (11716522_x_at) / Fold change /veh C10orf10 (11716522_x_at) / RFU KIR2DL2 /// KIR2DL4 /// KIR2DL5A /// KIR2DL5B /// KIR2DS1 /// KIR2DS2 /// KIR2DS3 /// KIR2DS4 /// KIR3DL3 /// KIR3DL3 /// KIR3DS1 (11738374_at) / Fold change /veh KIR2DL2 /// KIR2DL4 /// KIR2DL5A /// KIR2DL5B /// KIR2DS1 /// KIR2DS2 /// KIR2DS3 /// KIR2DS4 /// KIR3DL3 /// KIR3DL3 /// KIR3DS1 (11738374_at) / RFU C1QL1 (11718748_at) / Fold change /veh C1QL1 (11718748_at) / RFU TMPRSS4 (11747572_a_at) / Fold change /veh TMPRSS4 (11747572_a_at) / RFU HAMP (11756126_x_at) / Fold change /veh HAMP (11756126_x_at) / RFU RNFT2 (11725882_a_at) / Fold change /veh RNFT2 (11725882_a_at) / RFU NR4A2 (11747474_a_at) / Fold change /veh NR4A2 (11747474_a_at) / RFU ABCC12 (11746883_a_at) / Fold change /veh ABCC12 (11746883_a_at) / RFU TMEM136 (11760407_x_at) / Fold change /veh TMEM136 (11760407_x_at) / RFU CLDN22 /// WWC2 (11732394_at) / Fold change /veh CLDN22 /// WWC2 (11732394_at) / RFU HLA-DPB1 (11760878_x_at) / Fold change /veh HLA-DPB1 (11760878_x_at) / RFU SPINT1 (11716480_a_at) / Fold change /veh SPINT1 (11716480_a_at) / RFU GAP43 (11754022_s_at) / Fold change /veh GAP43 (11754022_s_at) / RFU A4GNT (11735810_at) / Fold change /veh A4GNT (11735810_at) / RFU PRB3 (11715151_x_at) / Fold change /veh PRB3 (11715151_x_at) / RFU TUBB4B (11761932_at) / Fold change /veh TUBB4B (11761932_at) / RFU CAPN14 (11732068_a_at) / Fold change /veh CAPN14 (11732068_a_at) / RFU TMCC2 (11721928_a_at) / Fold change /veh TMCC2 (11721928_a_at) / RFU IRGQ (11745062_a_at) / Fold change /veh IRGQ (11745062_a_at) / RFU FAM174B (11720279_a_at) / Fold change /veh FAM174B (11720279_a_at) / RFU TMPRSS4 (11748680_a_at) / Fold change /veh TMPRSS4 (11748680_a_at) / RFU FAM212B (11763350_a_at) / Fold change /veh FAM212B (11763350_a_at) / RFU PLEKHG5 (11743358_a_at) / Fold change /veh PLEKHG5 (11743358_a_at) / RFU ZSCAN30 (11745921_a_at) / Fold change /veh ZSCAN30 (11745921_a_at) / RFU CMKLR1 (11741424_a_at) / Fold change /veh CMKLR1 (11741424_a_at) / RFU LOC101060620 /// MAPK8IP1 (11723275_at) / Fold change /veh LOC101060620 /// MAPK8IP1 (11723275_at) / RFU SPTSSB (11747773_x_at) / Fold change /veh SPTSSB (11747773_x_at) / RFU PRSS12 (11739890_at) / Fold change /veh PRSS12 (11739890_at) / RFU BIN1 (11741810_x_at) / Fold change /veh BIN1 (11741810_x_at) / RFU WNT11 (11732464_a_at) / Fold change /veh WNT11 (11732464_a_at) / RFU C10orf10 (11716521_a_at) / Fold change /veh C10orf10 (11716521_a_at) / RFU C5orf56 (11738089_at) / Fold change /veh C5orf56 (11738089_at) / RFU CYB561 (11721691_x_at) / Fold change /veh CYB561 (11721691_x_at) / RFU ANKRD19P (11752326_a_at) / Fold change /veh ANKRD19P (11752326_a_at) / RFU OR2T12 /// OR2T33 /// OR2T8 (11738714_s_at) / Fold change /veh OR2T12 /// OR2T33 /// OR2T8 (11738714_s_at) / RFU VCAN (11748164_a_at) / Fold change /veh VCAN (11748164_a_at) / RFU JSRP1 (11732532_at) / Fold change /veh JSRP1 (11732532_at) / RFU KRTAP10-11 (11738290_x_at) / Fold change /veh KRTAP10-11 (11738290_x_at) / RFU MYO3A (11730013_a_at) / Fold change /veh MYO3A (11730013_a_at) / RFU EBF3 (11725865_a_at) / Fold change /veh EBF3 (11725865_a_at) / RFU CAMK2N1 (11719241_x_at) / Fold change /veh CAMK2N1 (11719241_x_at) / RFU C5orf56 (11738088_a_at) / Fold change /veh C5orf56 (11738088_a_at) / RFU OLFML3 (11715873_a_at) / Fold change /veh OLFML3 (11715873_a_at) / RFU LOC100653217 /// NTM (11731650_a_at) / Fold change /veh LOC100653217 /// NTM (11731650_a_at) / RFU MAPK11 (11762145_a_at) / Fold change /veh MAPK11 (11762145_a_at) / RFU FIZ1 (11724087_x_at) / Fold change /veh FIZ1 (11724087_x_at) / RFU OASL (11726364_x_at) / Fold change /veh OASL (11726364_x_at) / RFU SOX15 (11748057_x_at) / Fold change /veh SOX15 (11748057_x_at) / RFU CD79A (11719716_a_at) / Fold change /veh CD79A (11719716_a_at) / RFU HIST1H1D (11736915_at) / Fold change /veh HIST1H1D (11736915_at) / RFU CASKIN2 (11723855_a_at) / Fold change /veh CASKIN2 (11723855_a_at) / RFU LOC730098 (11760151_x_at) / Fold change /veh LOC730098 (11760151_x_at) / RFU OR4N2 (11742367_at) / Fold change /veh OR4N2 (11742367_at) / RFU PRRT2 (11749266_a_at) / Fold change /veh PRRT2 (11749266_a_at) / RFU SNX32 (11753110_a_at) / Fold change /veh SNX32 (11753110_a_at) / RFU CDHR5 (11726645_a_at) / Fold change /veh CDHR5 (11726645_a_at) / RFU RCAN1 (11760418_a_at) / Fold change /veh RCAN1 (11760418_a_at) / RFU FAM167A (11723789_a_at) / Fold change /veh FAM167A (11723789_a_at) / RFU FAM26E (11764081_at) / Fold change /veh FAM26E (11764081_at) / RFU ISYNA1 (11749810_s_at) / Fold change /veh ISYNA1 (11749810_s_at) / RFU ACY1 (11761880_at) / Fold change /veh ACY1 (11761880_at) / RFU 11764098_at / Fold change /veh 11764098_at / RFU SAMD14 (11745864_x_at) / Fold change /veh SAMD14 (11745864_x_at) / RFU NPB (11741838_a_at) / Fold change /veh NPB (11741838_a_at) / RFU TMPRSS6 (11731388_a_at) / Fold change /veh TMPRSS6 (11731388_a_at) / RFU KRTAP10-2 (11738614_at) / Fold change /veh KRTAP10-2 (11738614_at) / RFU ARHGAP8 /// PRR5-ARHGAP8 (11727945_x_at) / Fold change /veh ARHGAP8 /// PRR5-ARHGAP8 (11727945_x_at) / RFU KRTAP5-7 /// NADSYN1 (11734609_at) / Fold change /veh KRTAP5-7 /// NADSYN1 (11734609_at) / RFU RASL12 (11751679_a_at) / Fold change /veh RASL12 (11751679_a_at) / RFU CDKN2B (11736163_a_at) / Fold change /veh CDKN2B (11736163_a_at) / RFU PRF1 (11729649_at) / Fold change /veh PRF1 (11729649_at) / RFU, ZNF638 /// ZNF638-IT1 / Fold change vs veh, ZNF638 /// ZNF638-IT1 / RFU, PANK3 / Fold change vs veh, PANK3 / RFU, SH3YL1 / Fold change vs veh, SH3YL1 / RFU, ZEB2 / Fold change vs veh, ZEB2 / RFU, NRIP1 / Fold change vs veh, NRIP1 / RFU, PTTG1IP / Fold change vs veh, PTTG1IP / RFU, CAPN2 / Fold change vs veh, CAPN2 / RFU, MED14 / Fold change vs veh, MED14 / RFU, SNORA58 / Fold change vs veh, SNORA58 / RFU, C1orf63 / Fold change vs veh, C1orf63 / RFU, LRRFIP1 / Fold change vs veh, LRRFIP1 / RFU, NDUFAF7 / Fold change vs veh, NDUFAF7 / RFU, SLC12A2 / Fold change vs veh, SLC12A2 / RFU, IBTK / Fold change vs veh, IBTK / RFU, ESF1 / Fold change vs veh, ESF1 / Fold change vs veh, TMEM50B / RFU, TAOK1 / Fold change vs veh, TAOK1 / RFU, ACBD3 / Fold change vs veh, ACBD3 / RFU, TMA16 / Fold change vs veh, TMA16 / RFU, RWDD3 / Fold change vs veh, RWDD3 / RFU, BCAT1 / Fold change vs veh, BCAT1 / RFU, EDEM3 / Fold change vs veh, EDEM3 / RFU, TMEM33 / Fold change vs veh, TMEM33 / RFU, WDR75 / Fold change vs veh, WDR75 / RFU, AHCTF1 / Fold change vs veh, AHCTF1 / RFU, TFRC / Fold change vs veh, TFRC / RFU, ZDHHC17 / Fold change vs veh, ZDHHC17 / RFU, NOM1 / Fold change vs veh, NOM1 / RFU, ARL8B / Fold change vs veh, ARL8B / RFU, ZBTB11 / Fold change vs veh, ZBTB11 / RFU, TAMM41 / Fold change vs veh, TAMM41 / RFU, KIAA1704 /// LOC100996395 / Fold change vs veh, KIAA1704 /// LOC100996395 / RFU, ING1 / Fold change vs veh, ING1 / RFU, TRMT61B / Fold change vs veh, TRMT61B / RFU, FUBP3 / Fold change vs veh, FUBP3 / RFU, TP53 / Fold change vs veh, TP53 / RFU, TNKS2 / Fold change vs veh, TNKS2 / RFU, ZFP14 / Fold change vs veh, ZFP14 / RFU, ACTR2 / Fold change vs veh, ACTR2 / RFU, PPP3R1 / Fold change vs veh, PPP3R1 / RFU, PIK3R1 / Fold change vs veh, PIK3R1 / RFU, HNRNPA1 / Fold change vs veh, HNRNPA1 / RFU, RNF170 / Fold change vs veh, RNF170 / RFU, ZNF28 / Fold change vs veh, ZNF28 / RFU, RNGTT / Fold change vs veh, RNGTT / RFU, OGT / Fold change vs veh, OGT / RFU, BRD1 / Fold change vs veh, BRD1 / RFU, MARS / Fold change vs veh, MARS / RFU, ZNF655 / Fold change vs veh, ZNF655 / RFU, FAHD1 / Fold change vs veh, FAHD1 / RFU, BDP1 / Fold change vs veh, BDP1 / RFU, LRRCC1 / Fold change vs veh, LRRCC1 / RFU, ARID1A / Fold change vs veh, ARID1A / RFU, ZNF146 / Fold change vs veh, ZNF146 / RFU, ZNF330 / Fold change vs veh, ZNF330 / RFU, GPN3 / Fold change vs veh, GPN3 / RFU, C9orf123 / Fold change vs veh, C9orf123 / RFU, N4BP2L2 / Fold change vs veh, N4BP2L2 / RFU, ARFIP1 / Fold change vs veh, ARFIP1 / RFU, FAM179B / Fold change vs veh, FAM179B / RFU, BCL10 / Fold change vs veh, BCL10 / RFU, UHRF1BP1L / Fold change vs veh, UHRF1BP1L / RFU, BET1 / Fold change vs veh, BET1 / RFU, CNOT2 / Fold change vs veh, CNOT2 / RFU, ZNF268 / Fold change vs veh, ZNF268 / Fold change vs veh, ZNF507 / RFU, DGCR2 / Fold change vs veh, DGCR2 / RFU, WDSUB1 / Fold change vs veh, WDSUB1 / Fold change vs veh, HSP90B1 /// MIR3652 / RFU, ADSS / Fold change vs veh, ADSS / RFU, GK / Fold change vs veh, GK / RFU, ZNF148 / Fold change vs veh, ZNF148 / RFU, TAF9 / Fold change vs veh, TAF9 / RFU, SLC1A5 / Fold change vs veh, SLC1A5 / RFU, SLMO2 / Fold change vs veh, SLMO2 / RFU, ABCC4 / Fold change vs veh, ABCC4 / RFU, LOC101060439 /// RAP1B / Fold change vs veh, LOC101060439 /// RAP1B / RFU, RFX7 / Fold change vs veh, RFX7 / RFU, GTPBP10 / Fold change vs veh, GTPBP10 / RFU, CNEP1R1 / Fold change vs veh, CNEP1R1 / RFU, BIVM-ERCC5 /// ERCC5 / Fold change vs veh, BIVM-ERCC5 /// ERCC5 / RFU, ILF3 / Fold change vs veh, ILF3 / RFU 11762660_at / Fold change /veh 11762660_at / RFU VCAN (11757783_s_at) / Fold change /veh VCAN (11757783_s_at) / RFU DDX43 (11728927_at) / Fold change /veh DDX43 (11728927_at) / RFU KRT8 (11758188_x_at) / Fold change /veh KRT8 (11758188_x_at) / RFU NKD1 (11759106_at) / Fold change /veh NKD1 (11759106_at) / RFU SRD5A1 (11742802_a_at) / Fold change /veh SRD5A1 (11742802_a_at) / RFU TPSAB1 /// TPSB2 (11721975_s_at) / Fold change /veh TPSAB1 /// TPSB2 (11721975_s_at) / RFU GSTM3 (11746129_a_at) / Fold change /veh GSTM3 (11746129_a_at) / RFU IL23R (11737362_x_at) / Fold change /veh IL23R (11737362_x_at) / RFU TMEM51 (11727254_a_at) / Fold change /veh TMEM51 (11727254_a_at) / RFU PIWIL2 (11732686_x_at) / Fold change /veh PIWIL2 (11732686_x_at) / RFU ORM1 (11744905_x_at) / Fold change /veh ORM1 (11744905_x_at) / RFU CCDC152 (11743942_at) / Fold change /veh CCDC152 (11743942_at) / RFU ECM1 (11717891_a_at) / Fold change /veh ECM1 (11717891_a_at) / RFU IL23R (11748794_a_at) / Fold change /veh IL23R (11748794_a_at) / RFU TNFAIP8L3 (11732012_x_at) / Fold change /veh TNFAIP8L3 (11732012_x_at) / RFU MBOAT4 (11741988_at) / Fold change /veh MBOAT4 (11741988_at) / RFU 11764193_at / Fold change /veh 11764193_at / RFU TMEM53 (11763286_at) / Fold change /veh TMEM53 (11763286_at) / RFU MAGEB2 (11727129_at) / Fold change /veh MAGEB2 (11727129_at) / RFU TMEM200A (11744735_a_at) / Fold change /veh TMEM200A (11744735_a_at) / RFU CCDC152 (11751479_a_at) / Fold change /veh CCDC152 (11751479_a_at) / RFU FAM211A (11726209_a_at) / Fold change /veh FAM211A (11726209_a_at) / RFU RGS16 (11746705_a_at) / Fold change /veh RGS16 (11746705_a_at) / RFU VCAN (11755009_s_at) / Fold change /veh VCAN (11755009_s_at) / RFU RHOB (11743442_s_at) / Fold change /veh RHOB (11743442_s_at) / RFU RGS16 (11720943_a_at) / Fold change /veh RGS16 (11720943_a_at) / RFU RGS16 (11720944_at) / Fold change /veh RGS16 (11720944_at) / RFU, VPS4B / Fold change vs veh, VPS4B / RFU, CREB1 / Fold change vs veh, CREB1 / RFU, DNAJC13 / Fold change vs veh, DNAJC13 / RFU, GNAQ / Fold change vs veh, GNAQ / RFU, CDK5R1 / Fold change vs veh, CDK5R1 / RFU, ZRANB3 / Fold change vs veh, ZRANB3 / RFU, CUL4A / Fold change vs veh, CUL4A / RFU, CCNY / Fold change vs veh, CCNY / RFU, UFL1 / Fold change vs veh, UFL1 / RFU, COG3 / Fold change vs veh, COG3 / RFU, DIAPH2 / Fold change vs veh, DIAPH2 / RFU, SKA2 / Fold change vs veh, SKA2 / RFU, AFF3 / Fold change vs veh, AFF3 / RFU, LMF1 / Fold change vs veh, LMF1 / RFU, IPO11 / Fold change vs veh, IPO11 / RFU, DFFB / Fold change vs veh, DFFB / RFU, FOXP1 / Fold change vs veh, FOXP1 / RFU, CARD8 / Fold change vs veh, CARD8 / RFU, STRN3 / Fold change vs veh, STRN3 / RFU, ADK / Fold change vs veh, ADK / RFU, RASSF2 / Fold change vs veh, RASSF2 / RFU, WIPF1 / Fold change vs veh, WIPF1 / RFU, LARP1B / Fold change vs veh, LARP1B / RFU, RASA1 / Fold change vs veh, RASA1 / RFU, RB1 / Fold change vs veh, RB1 / RFU, PPFIA1 / Fold change vs veh, PPFIA1 / RFU, MAT2A / Fold change vs veh, MAT2A / RFU, CCT5 / Fold change vs veh, CCT5 / RFU, WDR92 / Fold change vs veh, WDR92 / RFU, CUX1 / Fold change vs veh, CUX1 / RFU, TTC7A / Fold change vs veh, TTC7A / RFU, TMEM135 / Fold change vs veh, TMEM135 / RFU, DEPTOR / Fold change vs veh, DEPTOR / RFU, CPM / Fold change vs veh, CPM / RFU, DNAJB6 / Fold change vs veh, DNAJB6 / RFU, CACNA2D3 / Fold change vs veh, CACNA2D3 / RFU, DTX4 / Fold change vs veh, DTX4 / RFU, TFCP2 / Fold change vs veh, TFCP2 / RFU, GMCL1 /// GMCL1P1 / Fold change vs veh, GMCL1 /// GMCL1P1 / RFU, AEBP2 / Fold change vs veh, AEBP2 / RFU, SNHG1 /// SNORD22 /// SNORD25 /// SNORD26 /// SNORD27 /// SNORD28 /// SNORD29 /// SNORD31 / Fold change vs veh, SNHG1 /// SNORD22 /// SNORD25 /// SNORD26 /// SNORD27 /// SNORD28 /// SNORD29 /// SNORD31 / Fold change (Aza/veh), C12orf56 (ProbeSet 11735607_a_at) / Fold change (ACY-1035/veh), C12orf56 (ProbeSet 11735607_a_at) / Fold change (Aza/veh), FGFR1OP (ProbeSet 11751329_s_at) / Fold change (ACY-1035/veh), FGFR1OP (ProbeSet 11751329_s_at) / Fold change (Aza/veh), VPS36 (ProbeSet 11739960_a_at) / Fold change (ACY-1035/veh), VPS36 (ProbeSet 11739960_a_at) / RFU SYPL1 (11715823_x_at) / Fold change /veh SYPL1 (11715823_x_at) / RFU IGFBP7 (11715501_s_at) / Fold change /veh IGFBP7 (11715501_s_at) / RFU REEP3 (11722064_at) / Fold change /veh REEP3 (11722064_at) / RFU IGLL1 (11728026_x_at) / Fold change /veh IGLL1 (11728026_x_at): dose or concentration left out as unconfirmed
Conditions: MV-4-11 cells, 48 hours

## Nc1ccc(-c2cccs2)cc1NC(=O)c1ccc2c(c1)cc(C1CC1)n2CCN1CCOCC1 [ACY-1035]
  Fold change /veh C5orf56 (11738089_at): 1.04
